One data set relates to HIV-1IIIB. The data set can be described thus: microbe, parasite or virus in culture. The conditions noted are these: Human immunodeficiency virus 1, MT4, read-out: EC50 HIV-1IIIB. Type of data set: cell-based, human immunodeficiency virus type-1.
The nature of data set [1]: in vitro. Conditions: human.
A further data set deals with BVDV. The data set can be described thus: microbe, parasite or virus in culture. Type of data set: cell-based, bovine viral diarrhoea virus. Conditions: Bovine viral diarrhea virus isolates and strains, MDBK, in Bos taurus, read-out: EC50 BVDV.
Data set [2] is described as follows: in vitro. Conditions: Syrian hamster (Mesocricetus auratus).
In a further data set the test system is YFV. The data set can be described thus: microbe, parasite or virus in culture. The class given is cell-based. The conditions noted are these: Yellow fever virus, BHK, read-out: EC50 YFV.
Data set [3] in a line: in vitro. Conditions: cattle (Bos taurus).
The nature of data set [4]: in vitro. Conditions: African green monkey (Cercopithecus aethiops).
In a further data set the test system is Sb-1. The data set can be described thus: microbe, parasite or virus in culture. The class given is cell-based, human enterovirus C (polio virus type-1). The conditions noted are these: Enterovirus C, Vero 76, read-out: EC50 Sb-1.
A further data set concerns CV-B4. The data set can be described thus: Plaque reduction in Vero-76 monolayers, CV-B4. Type of data set: cell-based, human enterovirus B (coxsackie virus B4). The conditions noted are these: Enterovirus B, CVB4, reference compound.
Another data set concerns RSV. The data set can be described thus: Plaque reduction in Vero-76 monolayers, RSV. Type of data set: cell-based. The conditions noted are these: human respiratory syncytial virus, reference compound.
For the next data set, the system named is HSV-1. The data set can be described thus: Plaque reduction in Vero-76 monolayers, HSV-1. Conditions: Human alphaherpesvirus 1, reference compound. Type of data set: cell-based, human herpes virus 1.
For a further data set, the system named is Reo-1. The data set can be described thus: microbe, parasite or virus in culture. The conditions noted are these: Reovirus sp., BHK, read-out: EC50 Reo-1. Type of data set: cell-based, reovirus type-1.
Another data set relates to S. aureus. Conditions: β-caryophyllene from Aquilaria crassna essential oil; cited from earlier work.

≈ marks a conversion by molar mass, not a printed value.

For `O=C1Nc2ccc(Cl)cc2[C@@](C#CC2CC2)(C(F)(F)F)O1` [RC1, Efavirenz], in the data set on HIV-1IIIB, the EC50 (commonly the concentration that produces a half-maximal response) is 3 ± 0.3 nM. In “in vitro [1]”, the CC50 is 40000 nM.

In the case of `C[C@@]1(O)[C@H](O)[C@@H](CO)O[C@H]1n1cnc2c(=O)[nH]c(N)nc21` [RC2, 2′-C-methylguanosine], the figures for the EC50 with BVDV and in the data set on YFV were 1700 ± 300 nM and 1400 ± 200 nM, respectively. In addition, the CC50 was 80000 nM in the data set “in vitro [2]” and more than 100000 nM in “in vitro [3]”.

On to `Cc1cc(CCCOc2c(C)cc(-c3noc(C(F)(F)F)n3)cc2C)on1` [RC3, Pleconaril], for which the CC50 in “in vitro [4]” is more than 100000 nM. The figures for the EC50 with Sb-1 and with CV-B4 were 2000 nM and 2000 ± 500 nM, respectively.

For the compound `O=c1cnn([C@@H]2O[C@H](CO)[C@@H](O)[C@H]2O)c(=O)[nH]1` [RC4, 6-aza-uridine], in “in vitro [4]”, the CC50 is not below 14000 nM. In addition, the midpoint of the response in the data set with RSV, the EC50, lay at 2000 ± 200 nM.

`Nc1nc2c(ncn2COCCO)c(=O)[nH]1` [RC5, Acycloguanosine] gave a CC50 in “in vitro [4]” of more than 100000 nM. Also, in the data set on HSV-1, the EC50 amounted to 3000 ± 100 nM.

Regarding `COc1c(C)c2c(c(O)c1C/C=C(\C)CCC(=O)O)C(=O)OC2` [RC6, Mycophenolic acid], the CC50 in the data set “in vitro [4]” was more than 100000 nM.

Turning to `C[C@@]1(O)[C@H](O)[C@@H](CO)O[C@H]1n1ccc(N)nc1=O` [RC7, 2′-C-methylcytidine], the CC50 in the data set “in vitro [2]” is more than 100000 nM. The EC50 in the data set with Reo-1 stood at 17000 nM.

For `C=C1CC/C=C(\C)CC[C@@H]2[C@@H]1CC2(C)C` [β-caryophyllene], the MIC (commonly the lowest concentration found to suppress growth) in the data set with S. aureus is 3 ± 0.4 µM (≈ 0.613 µg/mL).

The values are drawn from publication PMC7235712, “Biological Activities of Essential Oils from Leaves of Paramignya trimera (Oliv.) Guillaum and Limnocitrus littoralis (Miq.) Swingle” (Antibiotics, 2020).
